Source: paper PMC6694100, “The complex of ferric-enterobactin with its transporter from Pseudomonas aeruginosa suggests a two-site model” (Nature Communications, 2019)
Values joined by “and” are separate entries in the source; they are usually repeats but may differ in a detail not shown here. Equal values may be shown once. “Also recorded” adds a separate entry of the source. Read-outs that look alike come from different tables or passages of the source.

Key:
[1] = target: T1, PfeA R480A-Q482A double mutant (Pseudomonas aeruginosa, UniProt Q05098, Q507A/R505A); experiment: isothermal titration calorimetry, PfeA R480A-Q482A; assay type: binding
T1 construct: His7 tag with TEV protease site (N, cleaved yes); made in house; host or cells: E. coli C43 (DE3)
Protocol: (§1) The sites have different affinities for the ligand, one with high affinity and highly favourable enthalpy and the second with lower affinity and unfavourable enthalpy. Although the biphasic nature of the isotherm was reproducible, the numerical values varied. For K1, the binding constant was 20 to 100 nM; for K2 […]. […] The weaker binding at the […] site is consistent with the higher B-factor of the Fe^3+-enterobactin molecule observed in the complex crystal structures.
(§2) Affinities of PfeA wild-type and mutants for Fe^3+-enterobactin were measured by isothermal titration calorimetry using a VP-ITC instrument (GE Healthcare) at 25 °C. Titrations were performed using 57 × 5 μl injections of Fe^3+-enterobactin (70–55 μM) into 10 μM protein. The heats of dilution measured from injection of the ligands into the buffer were subtracted, and titration curves were fitted using AFFINImeter software with a two-site binding model. Concentrations of Fe^3+-enterobactin solutions were verified with UV/vis spectrophotometry using a published molar extinction coefficient of ε495 = 5600 M^−1 cm^−1. […] Reverse titration has been also performed (PfeA into Fe^3+-enterobactin), but data suffer from high heats of dilution in the beginning of the blank titration of PfeA into the buffer giving estimates of K1 = 95 nM and K2 = 4.5 μM for the wild-type.

[2] = test system: ∆pfeA cells with no plasmid; experiment: 55Fe-enterobactin binding and uptake assay, ∆pfeA; assay type: cell-based, Pseudomonas aeruginosa; details: for 55Fe count, Comptage / 55Fe-enterobactin bound/taken up: replicates, Figure 6b-c, listed as 55Fe-enterobactin
Protocol: (§3) Fig. 6 Effects of PfeA mutation in vivo. a Analysis of changes in the transcription of pfeA gene. PAO1 strain, its corresponding deletion mutant ∆pfeA and deletion mutants carrying the expression plasmid of PfeA wild-type (∆pfeA(pMMBpfeA) or the R480A-Q482A mutant (∆pfeA(pMMBpfeAR480AQ482A)) were grown in CAA medium supplemented with 10 µM enterobactin. The data were normalised relative to the reference gene uvrD, and are representative of three independent experiments performed in triplicate (n = 3). The results are given as a ratio between the values obtained for ∆pfeA, ∆pfeA(pMMBpfeA) and ∆pfeA(pMMBpfeAR480AQ482A) over those obtained for the PAO1 strain. b ^55Fe-enterobactin binding at the bacterial surface. Cells were grown as in panel a, and were incubated for 15 min with 200 µM CCCP before initiation of transport assays by the addition of 500 nM ^55Fe-enterobactin. After 30 min incubation, the radioactivity accumulated in the bacteria was counted. The results are expressed as pmol of ^55Fe-enterobactin bound per ml of cells at an OD600 of 1. The experiments have been repeated three times. c ^55Fe-enterobactin binding and uptake. Cells were grown as in panel a, and were incubated with or without 200 µM CCCP before initiation of transport assays by the addition of 500 nM ^55Fe-enterobactin. After 30 min incubations, the radioactivity accumulated in the bacteria was counted. The results are expressed as pmol of ^55Fe-enterobactin bound and transported per ml of cells at an OD600 of 1. The experiments have been repeated three times
(§4) The complex was prepared at ^55Fe concentrations of 50 μM, with a siderophore:iron (mol:mol) ratio of 20:1. P. aeruginosa strains were first grown overnight at 30 °C in LB broth, and were then washed, resuspended and cultured overnight at 30 °C in iron-deficient CAA medium (casamino acid medium, composition: 5 g.l^−1 low-iron CAA (Difco), 1.46 g.l^−1 K2HPO4 3H2O, 0.25 g.l^−1 MgSO4 7H2O) and in the presence of 10 µM enterobactin to induce the expression of PfeA. CAA is a highly iron-restricted medium with iron concentrations of 20 nM[59]. Afterwards bacteria were washed with 50 mM Tris-HCl pH 8.0, and diluted to an OD600 of 1. Cells solutions were divided in two, one batch being treated with 200 μM CCCP. This compound collapses the proton-motive force across the bacterial cell membranes, inhibiting TonB-dependent iron uptake. Binding and transport assays were initiated by adding 500 nM ^55Fe-enterobactin to the bacterial solutions treated or not with CCCP. After 30 min of incubations, cells were centrifuged, and the radioactivity associated to the bacteria was monitored in the cell pellets. For the cells treated with CCCP, the radioactivity in the cell pellets corresponds to the binding of ^55Fe-enterobactin to P. aeruginosa cell surface, since no uptake occurs. In the absence of CCCP, the radioactivity associated to the cells corresponds to ^55Fe-enterobactin binding to the cell surface and the uptake into the bacteria.

[3] = test system: ∆pfeA(pMMBpfeA) cells (native PfeA); experiment: 55Fe-enterobactin binding and uptake assay, ∆pfeA(pMMBpfeA); assay type: cell-based, Pseudomonas aeruginosa; details: for Comptage (dpm): replicate counts; for Comptage (dpm) / 55Fe incorporated, pmol/ml/DO600: Supplementary Fig 10, listed as 55Fe-enterobactin; for 55Fe incorporated, pmol/ml/DO600: replicates
Protocol: as §3, §4

[4] = test system: ∆pfeA(pMMBpfeAR480AQ482A) cells (double-mutant PfeA); experiment: 55Fe-enterobactin binding and uptake assay, ∆pfeA(pMMBpfeAR480AQ482A); assay type: cell-based, Pseudomonas aeruginosa; details: for 55Fe count, Comptage / 55Fe-enterobactin bound/taken up: replicates, Figure 6b-c, listed as 55Fe-enterobactin
Protocol: as §3, §4

[5] = target: T2, PfeA wild-type (Pseudomonas aeruginosa, UniProt Q05098); experiment: isothermal titration calorimetry, PfeA wild-type; assay type: binding; details: ITC reverse titration (PfeA into Fe^3+-enterobactin), estimate
T2 construct: His7 tag with TEV protease site (N, cleaved yes); made in house; host or cells: E. coli C43 (DE3)
Protocol: as §1, §2

[6] = target: T3, PfeA R480A mutant (Pseudomonas aeruginosa, UniProt Q05098, R505A); experiment: isothermal titration calorimetry, PfeA R480A; assay type: binding
T3 construct: His7 tag with TEV protease site (N, cleaved yes); made in house; host or cells: E. coli C43 (DE3)
Protocol: as §1, §2

[7] = target: T4, PfeA (Pseudomonas aeruginosa, UniProt Q05098); experiment: coelution on S200 size-exclusion column, PfeA wild-type; assay type: binding
T4 construct: His7 tag with TEV protease site (N, cleaved yes); made in house; host or cells: E. coli C43 (DE3)
Protocol: Proteins were incubated with the Fe^3+-siderophore before being loaded on a S200 size-exclusion column.
Crystals of PfeA appeared at 20 °C after few days by mixing 2 μl of protein solution (10 mg.ml^−1) with 1 μl of reservoir solution containing 11% polyethylene glycol 8000, 0.05 M ADA pH 6.5 and 0.1 M magnesium acetate. Crystals were frozen with the same solution containing 25% ethylene glycol. Enterobactin structure complexes were obtained by soaking apo crystals for few hours with mother liquor containing 5 mM Fe^3+-enterobactin before cryoprotection. For the others complexes, crystals were cross-linked by diffusion of 25% glutaraldehyde prior the soaking. Co-crystallisation attempts have been performed by incubating the protein for 1 h at room temperature with the ligand before been loaded on a S200 16/60 column and concentrated for setting up the crystallisation plates. No crystals have been obtained by co-crystallisation. Crystallisation conditions of the mutants were the same as for the wild-type.

[8] = cells not treated with CCCP, 500 nM ^55Fe-enterobactin, 30 min
[9] = ∆pfeA (pMMBpfeAR480AQ482A) + CCCP
[10] = ∆pfeA (pMMBpfeAR480AQ482A), no CCCP

T1 sequence (Q05098 26-746 R505A/Q507A): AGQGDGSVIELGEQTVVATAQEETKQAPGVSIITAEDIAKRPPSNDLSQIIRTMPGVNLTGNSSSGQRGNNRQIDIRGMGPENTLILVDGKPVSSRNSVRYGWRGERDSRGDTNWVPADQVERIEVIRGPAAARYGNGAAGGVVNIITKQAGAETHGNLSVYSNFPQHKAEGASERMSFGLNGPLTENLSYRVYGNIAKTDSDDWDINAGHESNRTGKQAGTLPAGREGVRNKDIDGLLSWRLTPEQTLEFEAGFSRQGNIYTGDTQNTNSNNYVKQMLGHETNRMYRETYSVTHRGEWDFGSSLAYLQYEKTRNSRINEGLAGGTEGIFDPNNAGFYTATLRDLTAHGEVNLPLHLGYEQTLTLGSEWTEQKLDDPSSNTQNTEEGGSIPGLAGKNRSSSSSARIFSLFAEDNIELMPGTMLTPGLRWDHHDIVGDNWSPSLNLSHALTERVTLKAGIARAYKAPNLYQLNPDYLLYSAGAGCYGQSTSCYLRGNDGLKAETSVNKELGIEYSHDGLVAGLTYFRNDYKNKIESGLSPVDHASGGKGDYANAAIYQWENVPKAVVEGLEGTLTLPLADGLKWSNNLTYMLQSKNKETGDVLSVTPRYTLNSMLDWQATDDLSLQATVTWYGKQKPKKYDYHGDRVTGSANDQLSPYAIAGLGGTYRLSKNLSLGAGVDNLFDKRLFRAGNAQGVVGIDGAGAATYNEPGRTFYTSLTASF
T3 sequence (Q05098 26-746 R505A): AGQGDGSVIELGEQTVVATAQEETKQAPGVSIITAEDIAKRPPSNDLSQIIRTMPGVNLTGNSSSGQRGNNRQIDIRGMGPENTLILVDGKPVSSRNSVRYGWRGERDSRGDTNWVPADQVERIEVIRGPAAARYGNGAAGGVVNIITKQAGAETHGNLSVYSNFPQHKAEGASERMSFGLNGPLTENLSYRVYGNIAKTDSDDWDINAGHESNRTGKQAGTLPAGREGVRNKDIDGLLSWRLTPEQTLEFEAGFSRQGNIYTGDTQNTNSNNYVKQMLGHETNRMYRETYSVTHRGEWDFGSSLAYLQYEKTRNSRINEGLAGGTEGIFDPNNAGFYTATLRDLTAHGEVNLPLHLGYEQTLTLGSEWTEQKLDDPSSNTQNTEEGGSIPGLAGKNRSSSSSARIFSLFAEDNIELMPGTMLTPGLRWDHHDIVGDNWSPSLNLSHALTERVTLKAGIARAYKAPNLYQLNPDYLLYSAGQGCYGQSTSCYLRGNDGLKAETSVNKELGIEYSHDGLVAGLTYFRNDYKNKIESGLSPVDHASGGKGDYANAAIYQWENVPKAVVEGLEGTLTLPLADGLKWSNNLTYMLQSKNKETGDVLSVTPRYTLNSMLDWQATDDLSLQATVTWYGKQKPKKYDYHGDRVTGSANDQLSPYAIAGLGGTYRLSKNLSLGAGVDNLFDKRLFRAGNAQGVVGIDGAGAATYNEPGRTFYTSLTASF
T2 sequence (Q05098 26-746): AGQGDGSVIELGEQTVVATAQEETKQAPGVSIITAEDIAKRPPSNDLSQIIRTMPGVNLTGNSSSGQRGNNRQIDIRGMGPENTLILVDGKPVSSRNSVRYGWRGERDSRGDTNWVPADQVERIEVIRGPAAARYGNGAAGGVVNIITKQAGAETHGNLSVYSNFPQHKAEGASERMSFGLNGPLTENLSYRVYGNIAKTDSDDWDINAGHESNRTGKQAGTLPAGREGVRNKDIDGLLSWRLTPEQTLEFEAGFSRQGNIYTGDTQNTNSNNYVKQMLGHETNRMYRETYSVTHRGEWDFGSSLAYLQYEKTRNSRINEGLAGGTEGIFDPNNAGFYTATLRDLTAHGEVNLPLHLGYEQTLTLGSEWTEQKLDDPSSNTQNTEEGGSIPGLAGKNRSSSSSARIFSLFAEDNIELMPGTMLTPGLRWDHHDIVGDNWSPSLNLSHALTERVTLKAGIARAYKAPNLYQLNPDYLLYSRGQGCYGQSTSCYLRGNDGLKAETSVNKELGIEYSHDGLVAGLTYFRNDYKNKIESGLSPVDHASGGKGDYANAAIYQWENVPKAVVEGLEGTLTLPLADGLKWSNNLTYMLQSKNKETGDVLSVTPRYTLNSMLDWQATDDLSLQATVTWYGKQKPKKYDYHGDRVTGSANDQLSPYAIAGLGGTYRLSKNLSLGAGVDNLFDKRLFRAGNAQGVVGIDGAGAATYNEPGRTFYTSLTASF
T4 sequence (Q05098 26-746): as above

## O=C(N[C@H]1COC(=O)[C@@H](NC(=O)c2cccc([O-])c2[O-])COC(=O)[C@@H](NC(=O)c2cccc([O-])c2[O-])COC1=O)c1cccc([O-])c1[O-].[Fe+3] [Fe^3+-enterobactin]
[1]
  binding by ITC: no binding was detected; also recorded: did not show any detectable binding
[2]; CCCP treated cells (200 µM), 500 nM ^55Fe-enterobactin, 30 min
  ^55Fe-siderophore binding at the bacterial surface: same low level of binding as wild-type PAO1
[2]; ∆pfeA + CCCP
  55Fe count, Comptage: 1560 dpm and 1268 dpm and 1340 dpm
  55Fe-enterobactin bound/taken up: 20.0147 pmol/ml/DO600 and 16.2683 pmol/ml/DO600 and 17.1921 pmol/ml/DO600
[2]; ∆pfeA, no CCCP
  55Fe count, Comptage: 3228 dpm and 4151 dpm and 2977 dpm
  55Fe-enterobactin bound/taken up: 41.415 pmol/ml/DO600 and 53.257 pmol/ml/DO600 and 38.1947 pmol/ml/DO600
[3]; CCCP treated cells (200 µM), 500 nM ^55Fe-enterobactin, 30 min, compared with wild-type PAO1
  ^55Fe-siderophore binding at the bacterial surface: much higher levels of binding
[3]; [8]
  ^55Fe-enterobactin binding and uptake: less efficient
[3]; ∆pfeA (pMMBpfeA) (no CCCP)
  Comptage (dpm): 9474 dpm and 9114 dpm and 9574 dpm
  55Fe incorporated, pmol/ml/DO600: 121.551 pmol/ml/DO600 and 116.932 pmol/ml/DO600 and 122.834 pmol/ml/DO600
[3]; ∆pfeA (pMMBpfeA) + CCCP
  Comptage (dpm): 6090 dpm and 6603 dpm and 5856 dpm
  55Fe incorporated, pmol/ml/DO600: 78.1342 pmol/ml/DO600 and 84.716 pmol/ml/DO600 and 75.132 pmol/ml/DO600
[4]; [8]
  ^55Fe-enterobactin binding and uptake: inactive
[4]; [9]
  55Fe count, Comptage: 1611 dpm and 1344 dpm and 1594 dpm
  55Fe-enterobactin bound/taken up: 20.669 pmol/ml/DO600 and 17.2434 pmol/ml/DO600 and 20.4509 pmol/ml/DO600
[4]; [10]
  55Fe count, Comptage: 2941 dpm and 2752 dpm and 2956 dpm
  55Fe-enterobactin bound/taken up: 37.7328 pmol/ml/DO600 and 35.3079 pmol/ml/DO600 and 37.9252 pmol/ml/DO600
[5]; read-out: K1, reverse titration
  Kd: 95 nM
[5]; read-out: K2, reverse titration
  Kd: 4500 nM
[6]
  binding by ITC: typical low affinity-binding curve profile; also recorded: weakened (but detectable) binding
[7]
  coelution with protein on size-exclusion column: coelute with PfeA
